According to patent US20120149080A1, “YEAST PRODUCTION CULTURE FOR THE PRODUCTION OF BUTANOL” (Butamax(TM) Advanced Biofuels LLC, priority 2010, published 2012):
Like-named read-outs stand apart in the source and are kept apart here.

Legend:
[1] = tested on: Saccharomyces cerevisiae BY4743; test: 24 hour survival (CFU) at low and high cell density; type: cell-based
Procedure: Saccharomyces cerevisiae BY4743 (ATCC 201390) was plated from a freezer vial onto YPD agar (Teknova, Hollister, Calif.; Cat. #Y1000) and incubated overnight at 30° C. Cells from the YPD plate were inoculated into a 25 ml pre-culture of YPD broth (Teknova; Cat. #Y5000) with an initial OD600 of 0.06 to 0.08. The pre-culture was grown for 7 hours in an aerobic shaker at 30° C. An aliquot of the pre-culture was inoculated into 200 ml of YPD broth, with an initial OD600 of 0.06 to 0.08, and this culture was incubated with aeration at 30° C. for approximately 17 hours. The optical density of the culture was measured, the culture was centrifuged and the cells were resuspended to yield an OD600 of 5 in fresh YPD broth. This is referred to as a high cell density (HCD) culture. […] This is referred to as a low the cell density (LCD) culture. These cultures were incubated at 30° C. with shaking for 30 minutes for an acclimation period. At the end of the 30 minute acclimation period, the OD600 was measured. 5 ml of low or high cell density culture was dispensed to 15 ml conical tubes which contained different concentrations of the alcohol to be tested. A control tube included no alcohol. The tubes were placed in a rotary drum at 30° C. and incubated for 24 hours. The time of addition of cells was referred to as “time 0”. […] Colony forming units (CFUs) were determined on YPD plates at time 0 for the control and at 24 hours for each of the cultures, including the control culture, using standard microbiological methods. […] Colonies were counted after 48 hours, and CFUs/ml were calculated. At time 0, the low cell density cultures had about 4.8×10^5 CFUs/ml, and the high cell density cultures had about 5.4×10^7 CFUs/ml.

[2] = tested on: Yeast cultures; conditions: 1% butanol
Procedure: Survival was measured by assaying the number of colony forming units (CFU), which is a measure of live cells.

[3] = 2.0% (w/v) alcohol, high cell density
[4] = 2.0% (w/v) alcohol, low cell density

Question: How did the “Percent Survival HCD (%)” value ([1]; 1.0% (w/v) alcohol, high cell density OD600 5) turn out when `CCCCO` [1-Butanol, 1-butanol] was run?
Answer: 72.2%

Question: And the “Percent Survival LCD (%)” value ([1]; 1.0% (w/v) alcohol, low cell density OD600 0.05)?
Answer: 1.3%

Question: And the “Percent Survival HCD (%)” value ([1]; 1.5% (w/v) alcohol, high cell density)?
Answer: 57.3%

Question: What about the “Percent Survival LCD (%)” value ([1]; 1.5% (w/v) alcohol, low cell density) of the same compound?
Answer: 0.4%

Question: And the “Percent Survival HCD (%)” value [1, 3]?
Answer: 3.6%

Question: And the “Percent Survival LCD (%)” value [1, 4]?
Answer: 0.1%

Question: Which results are given for `CCC(C)O` (centres unmarked) [2-Butanol, 2-butanol]?
Answer: Percent Survival HCD (%) [1, 3]: 27.6%; Percent Survival LCD (%) [1, 4]: 0.3%; Percent Survival HCD (%) ([1]; 3% (w/v) alcohol, high cell density): 18.9%; Percent Survival LCD (%) ([1]; 3% (w/v) alcohol, low cell density): 0.1%; Percent Survival HCD (%) ([1]; 3.5% (w/v) alcohol, high cell density): <0.001%; Percent Survival LCD (%) ([1]; 3.5% (w/v) alcohol, low cell density): <0.001%

Question: Which “survival rate compared to control culture without butanol” value ([2]; high cell density cultures) does the source give for butanol here?
Answer: at least 40%

Question: And the “survival rate compared to control culture without butanol” value ([2]; low cell density cultures (100-fold fewer cells))?
Answer: up to 13%

Question: `CCO` [Ethanol, ethanol] was tested. Which “Percent Survival HCD (%)” value [1, 3] did it give?
Answer: 62.5%

Question: What about the “Percent Survival LCD (%)” value [1, 4] of the same compound?
Answer: 100.0%

Question: And the “Percent Survival HCD (%)” value ([1]; 4% (w/v) alcohol, high cell density)?
Answer: 50.2%

Question: And the “Percent Survival LCD (%)” value ([1]; 4% (w/v) alcohol, low cell density)?
Answer: 100.0%

Question: What about the “Percent Survival HCD (%)” value ([1]; 5% (w/v) alcohol, high cell density) of the same compound?
Answer: 38.9%

Question: What about the “Percent Survival LCD (%)” value ([1]; 5% (w/v) alcohol, low cell density) of the same compound?
Answer: 25.3%
